Test results published in patent US20120152149A1, “USE OF 1,3-DIOLS AS BIOCIDES” (BASF SE, priority 2009, published 2012).
Like-named read-outs stand apart in the source and are kept apart here.

Columns and labels:
Assay type in all cases: cell-based
[1] = test system: series of tested microorganisms (bacteria and fungi); test: Microstatic activity, highest MIC from the series of tested microorganisms; conditions: highest measured MIC from the series of tested microorganisms
Experimental: The following microorganisms were used;to test the biocidal effect against various bacteria and fungi: In each case, the MIC (Minimum Inhibitory Concentration) value was determined. This value indicates the minimum concentration above which the growth of the microorganisms was visibly hindered compared to the corresponding sample without addition of the diol. The MIC value stated is a range between the next higher concentration of a positive test and the same and/or lower concentration of a first negative test. In the last line of each of the tables below, a “maximum” value is listed. This value indicates the highest measured MIC value in each case from the series of tested microorganisms.

[2] = test system: A. niger ATCC 16404; test: Preservation stress test, example formulation 2 (roll-on deodorant formulation); conditions: 1% active substance
Experimental: (§1) Preservation stress tests (PSTs) were carried out in order to determine the preserving activity of the diols. In the preservation stress test, this is simulated through artificial loadings with microorganisms. These can either be inoculated as mixed population or individually in mixtures independent of one another. The inoculated product samples are incubated under defined conditions and, after defined times, samples are taken in order to determine the germ loading. In the case of adequate preservation, the number of microorganisms should, depending on the type, either decrease or remain constant in order to satisfy the requirements specified, e.g. in Ph. Eur. 6.0. To investigate the preserving effect of the diols, application-typical amounts of the diols were incorporated into example formulations. […] [table] These example formulations were used to prepare various mixtures which each comprised 1% active substance or comprised water instead of the active substance as placebo mixtures. These mixtures were in each case inoculated with the test germs such that a germ loading of 10^5-10^6 CFU/g was present in the test mixture. The bacteria were either used individually for the inoculation or as a mixed culture. To determine the starting germ count, immediately after inoculation, an aliquot was taken, diluted in dilution medium (phosphate buffer, 0.07 molar pH 7.4 (+/−0.2), with 1% Tween 80+0.3% soya lecithin), and the surviving germ count was determined in the dilution stages 10^−1 to 10^−3. The inoculated product samples then incubated for a total of 28 d at 20-25° C. After 2 d, 7 d, 14 d and after 28 d, aliquots were taken and diluted in dilution medium (phosphate buffer, 0.07 molar pH 7.4 (+/−0.2), with 1% Tween 80+0.3% soya lecithin). The surviving germ counts were determined in the dilution stages 10^−1 to 10^−4. The reference point taken for determining the reduction in germ count was the respective initial value of the sample. The results were given as logarithmic reductions.

[3] = test system: E. coli ATCC 10536; test: as above; conditions: 1% active substance
Experimental: as §1

[4] = test system: S. aureus ATCC 6538; test: as above; conditions: 1% active substance
Experimental: as §1

[5] = test system: A. niger ATCC 16404; test: Preservation stress test, example formulation 1 (standard emulsion O/W); conditions: 1% active substance
Experimental: as §1

[6] = test system: C. albicans ATCC 10231; test: as above; conditions: 1% active substance
Experimental: as §1

[7] = test system: C. albicans NCPF 3179; test: Microstatic activity, MIC in tryptone soy broth; conditions: Candida albicans, NCPF3179, 120 h, 25° C., 5 days
Experimental: (§2) For this, in each case a 40 percent strength by weight solution of a diol in propylene glycol was prepared at 60° C. This solution was diluted with a double-strength soy solution (double-strength tryptone soy broth) as nutrient medium in the volume ratio 1:1. Further dilution with soy solution produced solutions with the following concentrations: 400 000 ppm (40%), 200 000 ppm (20%), 100 000 ppm (10%), 50 000 ppm (5%), 25 000 ppm (2.5%), 12 500 ppm (1.25%), 6250 ppm (0.625%), 3125 ppm (0.3125%). Pure soy solution was used as negative control. The positive control used was a solution of 5 ml of soy solution which has been treated with 0.1 ml of the respective microorganism. The test solutions consisted of 5 ml of the above-described soy solutions of the diols in the particular concentration which have been mixed with 0.1 ml of the respective microorganism. The samples and controls were incubated in the case of the bacteria at 30° C. for 48 hours, and in the case of fungi over 5 days at 25° C. In each case, the MIC (Minimum Inhibitory Concentration) value was determined. This value indicates the minimum concentration above which the growth of the microorganisms was visibly hindered compared to the corresponding sample without addition of the diol. […] For example, this was evident from the occurrence of clouding or visible growth of the microorganism. […] The MIC value stated is a range between the next higher concentration of a positive test and the same and/or lower concentration of a first negative test.

[8] = test system: E. coli NCIMB 8545; test: Microstatic activity, MIC in tryptone soy broth; conditions: Escherichia coli, NCIMB8545, 30° C., 48 hours
Experimental: as §2

[9] = test system: A. niger IMI 149007; test: Microstatic activity, MIC in tryptone soy broth; conditions: Aspergillus niger, IMI149007, 120 h, 25° C., 5 days
Experimental: as §2

[10] = test system: P. aeruginosa NCIMB 10421; test: Microstatic activity, MIC in tryptone soy broth; conditions: Pseudomonas aeruginosa, NCIMB10421, 30° C., 48 hours
Experimental: as §2

[11] = test system: P. vulgaris NCIMB 4175; test: Microstatic activity, MIC in tryptone soy broth; conditions: Proteus vulgaris, NCIMB4175, 30° C., 48 hours
Experimental: as §2

[12] = test system: S. aureus NCIMB 9578; test: Microstatic activity, MIC in tryptone soy broth; conditions: Staphylococcus aureus, NCIMB9578, 30° C., 48 hours
Experimental: as §2

[13] = lower limit, read-out: Maximum MIC value (ppm of diol), from
[14] = upper limit, read-out: Maximum MIC value (ppm of diol), to
[15] = lower limit of MIC range, read-out: MIC value (ppm of diol), from
[16] = upper limit of MIC range, read-out: MIC value (ppm of diol), to

SMILES | MIC [1, 13] [mg/mL] | MIC [1, 14] [mg/mL] | Microbicidal activity given as logarithmic reduction in germ count ([2]; 48 h) [log. Red.] | Microbicidal activity given as logarithmic reduction in germ count ([2]; 7 d) [log. Red.] | Microbicidal activity given as logarithmic reduction in germ count ([2]; 14 d) [log. Red.] | Microbicidal activity given as logarithmic reduction in germ count ([3]; 48 h) [log. Red.] | Microbicidal activity given as logarithmic reduction in germ count ([3]; 7 d) [log. Red.] | Microbicidal activity given as logarithmic reduction in germ count ([3]; 14 d) [log. Red.] | Microbicidal activity given as logarithmic reduction in germ count ([3]; 28 d) [log. Red.] | Microbicidal activity given as logarithmic reduction in germ count ([4]; 48 h) | Microbicidal activity given as logarithmic reduction in germ count ([4]; 7 d) [log. Red.] | Microbicidal activity given as logarithmic reduction in germ count ([4]; 14 d) [log. Red.] | Microbicidal activity given as logarithmic reduction in germ count ([4]; 28 d) [log. Red.] | Microbicidal activity given as logarithmic reduction in germ count ([5]; 48 h) [log. Red.] | Microbicidal activity given as logarithmic reduction in germ count ([5]; 7 d) [log. Red.] | Microbicidal activity given as logarithmic reduction in germ count ([5]; 14 d) [log. Red.] | Microbicidal activity given as logarithmic reduction in germ count ([5]; 28 d) [log. Red.] | Microbicidal activity given as logarithmic reduction in germ count ([6]; 48 h) | Microbicidal activity given as logarithmic reduction in germ count ([6]; 7 d) | Microbicidal activity given as logarithmic reduction in germ count ([6]; 14 d) [log. Red.] | other results
OCC1(CO)CCCC1 [DMCP, 1,1-dimethylolcyclopentane] | > 50 | ≤ 100 | 0 | 0 | 0 | 1 | 3 | 5 | 5 | ≧3 log. Red. | 5 | 5 | 5 | 2 | 1 | 2 | 2 | ≧3 log. Red. | 5 log. Red. | 5 | Microbicidal activity given as logarithmic reduction in germ count ([6]; 28 d): 5 log. Red.; MIC [7, 15]: > 25 mg/mL; MIC [7, 16]: ≤ 50 mg/mL; MIC [8, 15]: > 3.12 mg/mL; MIC [8, 16]: ≤ 6.25 mg/mL; MIC [9, 15]: > 50 mg/mL; MIC [9, 16]: ≤ 100 mg/mL; MIC [10, 15]: > 12.5 mg/mL; MIC [10, 16]: ≤ 25 mg/mL; MIC [11, 15]: > 12.5 mg/mL; MIC [11, 16]: ≤ 25 mg/mL; MIC [12, 15]: > 3.12 mg/mL; MIC [12, 16]: ≤ 6.25 mg/mL
CC(C)C(C)(CO)CO [IMPD, 2-isopropyl-2-methylpropane-1,3-diol] | > 25 | ≤ 50 | 0 | 0 | 0 | 3 | 5 | 5 | 5 | ≧3 log. Red. | 5 | 5 | 5 | 1 | 1 | 2 | 3 | 1 log. Red. | ≧3 log. Red. | 5 | Microbicidal activity given as logarithmic reduction in germ count ([6]; 28 d): 5 log. Red.; MIC [7, 15]: > 25 mg/mL; MIC [7, 16]: ≤ 50 mg/mL; MIC [8, 15]: > 6.25 mg/mL; MIC [8, 16]: ≤ 12.5 mg/mL; MIC [9, 15]: > 25 mg/mL; MIC [9, 16]: ≤ 50 mg/mL; MIC [10, 15]: > 12.5 mg/mL; MIC [10, 16]: ≤ 25 mg/mL; MIC [11, 15]: > 6.25 mg/mL; MIC [11, 16]: ≤ 12.5 mg/mL; MIC [12, 15]: > 12.5 mg/mL; MIC [12, 16]: ≤ 25 mg/mL
